The target in the assay is SUMO-activating enzyme (SAE), subunit 2 (UBA2/SAE2) (Homo sapiens, UniProt Q9UBT2). The assay is described as follows: ATP-inorganic pyrophosphate exchange assay with SUMO2. It is filed as biochemical.
Sequence of SUMO-activating enzyme (SAE), subunit 2 (UBA2/SAE2) (Q9UBT2 whole entry): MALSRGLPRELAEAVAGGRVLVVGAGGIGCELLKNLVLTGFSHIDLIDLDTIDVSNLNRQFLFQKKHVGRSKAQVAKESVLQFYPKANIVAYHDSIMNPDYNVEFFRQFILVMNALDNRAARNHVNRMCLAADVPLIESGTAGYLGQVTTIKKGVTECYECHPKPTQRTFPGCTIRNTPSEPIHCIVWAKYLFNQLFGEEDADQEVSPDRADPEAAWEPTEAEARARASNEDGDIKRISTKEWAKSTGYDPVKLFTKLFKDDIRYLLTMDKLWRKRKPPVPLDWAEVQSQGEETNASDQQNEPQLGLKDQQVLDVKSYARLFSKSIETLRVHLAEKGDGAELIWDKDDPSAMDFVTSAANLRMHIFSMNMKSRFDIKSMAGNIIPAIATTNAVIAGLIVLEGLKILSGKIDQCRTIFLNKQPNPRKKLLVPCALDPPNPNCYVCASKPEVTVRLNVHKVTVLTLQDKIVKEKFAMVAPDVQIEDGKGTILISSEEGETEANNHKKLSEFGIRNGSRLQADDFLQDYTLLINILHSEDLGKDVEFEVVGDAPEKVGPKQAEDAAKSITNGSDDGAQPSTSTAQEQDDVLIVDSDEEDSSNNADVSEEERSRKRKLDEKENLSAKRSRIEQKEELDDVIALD
Sequence of SUMO-activating enzyme (SAE), subunit 2 (UBA2/SAE2) (Q9UBE0 whole entry, further chain): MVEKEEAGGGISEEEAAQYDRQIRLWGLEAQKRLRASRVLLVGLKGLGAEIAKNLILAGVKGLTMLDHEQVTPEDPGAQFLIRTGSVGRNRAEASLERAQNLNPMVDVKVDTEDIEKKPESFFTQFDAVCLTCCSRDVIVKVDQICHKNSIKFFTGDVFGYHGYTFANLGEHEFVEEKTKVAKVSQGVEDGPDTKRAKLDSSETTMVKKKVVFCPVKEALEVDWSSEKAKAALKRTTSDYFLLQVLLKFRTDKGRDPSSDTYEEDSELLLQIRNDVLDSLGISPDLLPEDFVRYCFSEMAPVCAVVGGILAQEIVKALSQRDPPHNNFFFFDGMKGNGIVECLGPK

Consider ML-93, for which the midpoint of inhibition, the IC50, lay at 0.037 µM.

The values above are taken from article PMC7398468 (Gut, 2020).
